The text below walks through data of patent US20130165489A1, “Small Molecule Modulators of HIV-1 Capsid Stability and Methods Thereof” (The Trustees of the University of Pennsylvania, priority 2010, published 2013).

Holding throughout (assay type): cell-based
Data set [1] deals with Vaccinia. The data set can be described thus: microbe, parasite or virus in culture.
In data set [2] the test system is HIV-1 92BR025 (subtype C clinical isolate). The data set can be described thus: Anti-HIV efficacy in human PBMCs, isolate 92BR025. The protocol:
HIV human peripheral blood mononuclear cell (PBMC) assays were performed as described previously (Lanier et al., 2010, Antimicrob. Agents Chemother. 54:2901-09; Ptak et al., 2008, Antimicrob. Agents Chemother. 52:1302-17). Briefly, fresh PBMCs, seronegative for HIV and hepatitis B virus (HBV), were isolated from blood samples of the screened donors (Biological Specialty Corporation, Colmar, Pa.) by using lymphocyte separation medium (LSM; density, 1.078±0.002 g/ml; Cellgro; Mediatech, Inc.) by following the manufacturer's instructions. Cells were stimulated by incubation in 4 μg/mL phytohemagglutinin (PHA; Sigma) for 48 to 72 h. Mitogenic stimulation was maintained by the addition of 20 U/mL recombinant human interleukin-2 (rhIL-2; R&D Systems, Inc.) to the culture medium. PHA-stimulated PBMCs from at least two donors were pooled, diluted in fresh medium, and added to 96-well plates at 5×10^4 cells/well. Cells were infected (final multiplicity of infection [MOI] of ≅0.1) in the presence of 9 different concentrations of test compounds (triplicate wells/concentration) and incubated for 7 days. […] Following removal of supernatant samples, compound cytotoxicity was measured by the addition of 3-(4,5-dimethylthiazol-2-yl)-5-(3-carboxymethoxyphenyl)-2-(4-sulfophenyl)-2H-tetrazolium (MTS; CellTiter 96 reagent; Promega) by following the manufacturer's instructions. […]

The test system of data set [3] is H1N1. The data set can be described thus: CPE assay, influenza H1N1.

Consider `O=C(O)c1ccc(-c2nc(-c3ccccc3)c(-c3ccccc3)[nH]2)cc1` [CMPD-E, 4-(4,5-diphenyl-1H-imidazol-2-yl)benzoic acid], for which the IC50 – broadly, the midpoint of a concentration-inhibition curve – was over 100 µM in data set [1] (Orthopoxvirus vaccinia); 51 µM in data set [2] (Human immunodeficiency virus 1, PBMC); over 100 µM in data set [3] (Influenza A virus, H1N1, CPE assay). Also, in data set [1] (up to 100 μM), the “effect on Vaccinia replication” value was “no inhibitory effects”. Further, the “Antiviral index (TC50/IC50)” value in data set [2] (PBMC) is given as over 1.96. In data set [3] (up to 100 μM), the “effect on influenza H1N1 replication” value is on record as “no inhibitory effects”.
